Assay [1] relates to Ziegen mit persistierendem Vorhofflimmern (AF). The experiment in a line: Efficiency of cardioversion in up to eight goats with persistent atrial fibrillation. The class given is in vivo. On the procedure: In weiteren Versuchen wurde die Effizienz der Kardioversion bei verschiedenen Dosierungen der Verbindung des Beispiels 1 und bei zusätzlicher Infusion von Ibutilide (2 mg/kg) bzw. Dofetilide (10 µg/kg) an mehreren Ziegen getestet (Tabelle 5).
Es wurden Versuche an bis zu acht Ziegen durchgeführt, die sich in persistierendem Vorhofflimmern befanden. Nach Infusion von 0,9% Kochsalzlösung über 30 min zur Kontrolle wurden bis zu acht Ziegen die Verbindung des Beispiels 1 (jeweils im Abstand von Tagen) in Mengen von jeweils 0.0 (Kontrolle), 0.1, 0.3, 1, 3 und 10 mg pro kg Körpergewicht und pro Stunde über eine Dauer von 90 Minuten infundiert, wobei nach 60 Minuten zusätzlich 2 mg Ibutilide pro Kilogramm Körpergewicht in einem Zeitintervall von 30 min verabreicht wurde.
Analog wurden an bis zu acht Ziegen nach 60 Minuten Verabreichung verschiedener Mengen der Verbindung des Beispiels 1 (jeweils 0.0 (Kontrolle), 0.1, 0.3, 1,3 und 10 mg pro kg Körpergewicht und pro Stunde jeweils im Abstand von Tagen) zusätzlich 10 µg Dofetilide pro kg Körpergewicht in einem Zeitintervall von 30 Minuten anstelle von Ibutilide verabreicht.
Die Effizienz der Kardioversion von persistierendem Vorhofflimmern (AF) durch die Gabe der Verbindung des Beispiels 1 mit ibutilide bzw. der Verbindung des Beispiels 1 mit Dofetilide sind in der Tabelle 5 bei verschiedenen Dosierungen der Verbindung des Beispiels 1 (0.0, 0.1, 0.3, 1, 3 und 10 mg pro kg Körpergewicht und pro Stunde) dargestellt. Angegeben sind die Anzahl der Ziegen, bei denen Kardioversion auftrat, im Vergleich zu der Anzahl der Ziegen, mit denen der Versuch durchgeführt wurde, und daraus errechnet die Effizienz der Kardioversion in Prozent. Jede Terminierung des persistenten Vorhofflimmerns während einer jeweiligen Infusionsperiode wurde als eine erfolgreiche Kardioversion angesehen. […] Tabelle 5: Effizienz der Kardioversion in Prozent bei Ziegen mit persistierendem Vorhofflimmern (AF) bei verschiedenen Dosierungen der Verbindung des Beispiels 1 und bei zusätzlicher Infusion von Ibutilide bzw. Dofetilide. In Klammern angegeben ist jeweils das Verhältnis Ziegen, bei denen Kardioversion auftrat, zu Ziegen, die bei dem jeweiligen Versuch eingesetzt wurden.

The subject of assay [2] is Ziegen, mit remodellierten Vorhöfen. Kind of assay: Atrial effective refractory period (AERP) in goats with electrically remodelled atria. The class given is in vivo. Conditions: for atriale effektive Refraktärzeit (AERP): Remodelliert (1-4 days induced AF), cycle length 400 ms, mean ± SD, Beispiel 1 3 mg/kg/h; for Verlängerung des AERP: remodelled atria. On the procedure: (§1) An chronisch instrumentierten Ziegen wurden die elektrophysiologischen Effekte der Verbindung des Beispiels 1, des IKr-Kanalblockers Ibutilide und der Kombination von der Verbindung des Beispiels 1 und Ibutilide untersucht.
(§2) Nach Infusion von 0,9% Kochsalzlösung über 30 min zur Kontrolle wurden die Substanzen lbutilide und die Verbindung des Beispiels 1 zum einen in Monotherapie und zum anderen in Kombination der beiden Wirkstoffe an 7 normalen Ziegen (d. h. ohne induziertes Vorhofflimmem) durch intravenöse Infusion verabreicht und die atriale effektive Refraktärzeit (AERP) bestimmt. Bei der Monotherapie wurde über die Zeitdauer von 60 Minuten 0.12 mg Ibutilide pro kg Körpergewicht verabreicht (0.002 mg pro kg pro Minute). In der Kombination wurden über die Dauer von 120 Minuten 6 mg der Verbindung des Beispiels 1 pro kg Körpergewicht verabreicht (3mg pro kg pro Stunde), wobei nach 60 Minuten zusätzlich 0.12 mg Ibutilide pro kg pro Stunde für die Dauer von 60 Minuten verabreicht wurden. Die Infusion der Verbindung des Beispiels 1 wurde insgesamt über 120 min durchgeführt. Kontrollmessungen der atrialen effektiven Refraktärzeit wurden einmal vor Gabe des Ibutilides (Kontrolle 1) und einmal vor Gabe der Verbindung des Beispiels 1 (Kontrolle 2) durchgeführt.
(§3) Das gleiche Infusionsschema wurde an denselben Tieren wiederholt, nachdem elektrische Remodellierung durch induziertes Vorhofflimmern von 1 bis 4 Tagen erzeugt wurde.
as §2, with “Ein analoges Infusionsschema wurde an 5 weiteren Tieren mit Dofetilide anstelle von Ibutilide durchgeführt. Nach” for “Nach”, “Dofetilide” for “lbutilide”, “5” for “7”, “Vorhofflimmern)” for “Vorhofflimmem)”, “Dofetilide” for “Ibutilide”, “Dofetilids” for “Ibutilides”
as §3

Assay [3] relates to normalen Ziegen. The experiment in a line: Atrial effective refractory period (AERP) in normal goats. Format: in vivo. Particulars: for atriale effektive Refraktärzeit (AERP): Nicht remodelliert, cycle length 400 ms, mean ± SD, Beispiel 1 3 mg/kg/h; for Verlängerung der AERP: normal atria. The protocol: as §1, §2
Die Kombination beider Substanzen wurde getestet, indem wie oben beschrieben nach der Infusion der Verbindung des Beispiels 1 über eine Stunde zusätzlich Ibutilide verabreicht wurde.
as §2, with “Ein analoges Infusionsschema wurde an 5 weiteren Tieren mit Dofetilide anstelle von Ibutilide durchgeführt. Nach” for “Nach”, “Dofetilide” for “lbutilide”, “5” for “7”, “Vorhofflimmern)” for “Vorhofflimmem)”, “Dofetilide” for “Ibutilide”, “Dofetilids” for “Ibutilides”

Assay [4] relates to persistierendem Vorhofflimmern (AF). Kind of assay: Atrial fibrillation cycle length (AFCL) in goats with persistent atrial fibrillation. Format: in vivo, Ziegen. The protocol: (§4) Es wurden Versuche an zwei Ziegen durchgeführt, die sich in persistierendem Vorhofflimmem von mehr als 45 Tagen befanden. Nach Infusion von 0,9% Kochsalzlösung über 30 min zur Kontrolle, wurde einer Ziege die Verbindung des Beispiels 1 der Reihe nach (jeweils im Abstand von Tagen) in Mengen von jeweils 0.0 (Kontrolle), 0.1, 0.3, 1, 3 und 10 mg pro kg Körpergewicht und pro Stunde über eine Dauer von 90 Minuten infundiert, wobei nach 60 Minuten zusätzlich 2 mg Ibutilide pro Kilogramm Körpergewicht in einem Zeitintervall von 30 min verabreicht wurde.
(§5) Analog wurden einer zweiten Ziege nach 60 Minuten Verabreichung verschiedener Mengen der Verbindung des Beispiels 1 (jeweils 0.0 (Kontrolle), 0.1, 0.3, 1, 3 und 10 mg pro kg Körpergewicht und pro Stunde jeweils im Abstand von Tagen) zusätzlich 10 µg Dofetilide pro kg Körpergewicht in einem Zeitintervall von 30 Minuten anstelle von Ibutilide verabreicht.
In Fig.1 und Fig.2 sind die Messungen der Zykluslänge des atrialen Flimmerns (AFCL) nach kombinierter Gabe von Ibutilide und der Verbindung des Beispiels 1 bzw. nach kombinierter Gabe von Dofetilide und der Verbindung des Beispiels 1 dargestellt. Die Messungen des AFCL und der Kardioversion erfolgten nebeneinander.
In den Zeichnungen wurden folgende Beschriftungen und Kennzeichnungen vorgenommen: • Fig.1: Messung der Zykluslänge des atrialen Flimmerns (AFCL) nach kombinierter Gabe von Ibutilide und der Verbindung des Beispiels 1 Y-Achse: AFCL in ms X-Achse: Zeit in Minuten Die Verbindung des Beispiels 1 wurde in folgenden Mengen infundiert: • 10 mg/kg/h • 3 mg/kg/h • 1 mg/kg/h • 0.3 mg/kg/h • 0.1 mg/kg/h • 0.0 mg/kg/h (Kontrolle) • Fig.2: Messung der Zykluslänge des atrialen Flimmerns (AFCL) nach kombinierter Gabe von Dofetilide und der Verbindung des Beispiels 1 Y-Achse: AFCL in ms X-Achse: Zeit in Minuten Die Verbindung des Beispiels 1 wurde in folgenden Mengen infundiert: • 10 mg/kg/h • 3 mg/kg/h • 1 mg/kg/h • 0.3 mg/kg/h • 0.1 mg/kg/h • 0.0 mg/kg/h (Kontrolle)

Assay [5] has the same test system. The experiment in a line: Cardioversion in chronically fibrillating goats: time points of cardioversion (single goats). The class given is in vivo, Ziegen. The protocol:
as §4, §5
Die Zeitpunkte der Kardioversion von persistierendem Vorhofflimmem (AF) durch die Gabe der Verbindung des Beispiels 1 mit Ibutilide bzw. der Verbindung des Beispiels 1 mit Dofetilide sind in den Tabellen 3 und 4 bei verschiedenen Dosierungen der Verbindung des Beispiels 1 (0.0, 0.1, 0.3, 1,3 und 10 mg pro kg Körpergewicht und pro Stunde) dargestellt. Tabelle 3: Auftreten der Kardioversion von persistierendem Vorhofflimmern (AF) nach jeweiliger Reinduktion des Vorhofflimmerns bei verschiedenen Dosierungen der Verbindung des Beispiels 1 und bei zusätzlicher Infusion von Ibutilide nach 60 Minuten (Zeitpunkte in Minuten gemessen ab Beginn der Infusion der Verbindung des Beispiels 1)

Setting [6] is: Beispiel 1 dose 0,1, alone or + Ibutilide 2mg/kg or + Dofetilide 10µg/kg.
The mark [7] stands for this setting: Beispiel 1 dose 0,3, alone or + Ibutilide 2mg/kg or + Dofetilide 10µg/kg.
[8] abbreviates: Beispiel 1 dose 1, alone or + Ibutilide 2mg/kg or + Dofetilide 10µg/kg.
Where [9] appears, read: Beispiel 1 dose 10, alone or + Ibutilide 2mg/kg or + Dofetilide 10µg/kg.
The mark [10] stands for this setting: 5 goats, i.v. infusion: Dofetilide 0.12 mg/kg over 60 min.
Where [11] appears, read: 7 goats, i.v. infusion: Ibutilide 0.12 mg/kg over 60 min.
[12] abbreviates: n=5, versus control (94 ms and 93 ms), Dofetilide study.
The mark [13] stands for this setting: n=7, versus control (93 ms and 97 ms), Ibutilide study.
The mark [14] stands for this setting: n=5, versus control before dosing (151 ms and 158 ms), Dofetilide study.
[15] abbreviates: n=7, versus control before dosing (159 ms and 162 ms), Ibutilide study.
Setting [16] is: Fig.1 goat, Ibutilide 2 mg/kg per 30 min given after 60 min (alone: from 94 ms baseline), Beispiel 1 3 mg/kg/h.
[17] abbreviates: Beispiel 1 dose 0, Ibutilide 2mg/kg or Dofetilide 10µg/kg alone.

Where “and” joins values, the source holds several entries; their conditions need not be identical. Equal values may be shown once.

With `COc1ccc(CC(=O)NCc2ccccc2-c2ccccc2C(=O)NCCc2cccnc2)cc1` [Beispiel 1, 2'-{[2-(4-Methoxy-phenyl)-acetylamino]-methyl}-biphenyl-2-carbonsäure-(2-pyridin-3-yl-ethyl)-amid], the “Effizienz der Cardioversion” value in assay [1] (setting [6]) is listed as 17%; in assay [1] (setting [7]) it was 17%; in assay [1] (setting [8]), 13%; in assay [1] (Beispiel 1 dose 3, alone or + Ibutilide 2mg/kg or + Dofetilide 10µg/kg) it was 38%; in assay [1] (setting [9]), 63%. For the same compound, the “Verhältnis Ziegen, bei denen Kardioversion auftrat, zu Ziegen, die eingesetzt wurden” value (“Verhältnis Ziegen” below) in assay [1] (setting [6]) is “(1/6)”; in assay [1] (setting [7]) it was “(1/6)”; in assay [1] (setting [8]), “(1/8)”; in assay [1] (Beispiel 1 dose 3, alone or + Ibutilide 2mg/kg or + Dofetilide 10µg/kg, listed as Verbindung des Beispiels 1), 3 von 8 and (3/8); in assay [1] (setting [9]), “(5/8)”. The “atriale effektive Refraktärzeit (AERP)” value is listed as 164 ± 19 ms in assay [2] (setting [10]), 160 ± 16 ms in assay [2] (setting [11]), 209 ± 29 ms in assay [3] (setting [10]) and 206 ± 26 ms in assay [3] (setting [11]). In addition, the “Verlängerung des AERP” value in assay [2] (setting [12]) amounted to 71 ms; in assay [2] (setting [13]) it was 63 ms. Besides, the “Verlängerung der AERP” value in assay [3] (setting [14]) is recorded as 51 ms; in assay [3] (setting [15]), 44 ms. Besides, the AFCL in assay [4] (setting [16]) is listed as 147 ms; in assay [4] (Fig.2 goat, Beispiel 1 alone at 0.1, 0.3, 1, 3 or 10 mg/kg/h), “dosisabhängigen Zunahme der AFCL”. In addition, in assay [5] (Beispiel 1 10mg/kg/h, time points before the start of Ibutilide at 60 min (monotherapy), one goat, listed as Verbindung des Beispiels 1, 10 mg/kg), the “Zeitpunkte der Kardioversion” value is 42.00 Minuten and 50.00 Minuten. The Kardioversion result in assay [5] (Beispiel 1 alone at 0.1, 0.3, 1, 3 or 10 mg/kg/h, goat of Tabelle 4) was “nicht zur Kardioversion”; in assay [5] (monotherapy, only at 10 mg/kg/h, goat of Tabelle 3), “möglich, eine Kardioversion herbeizuführen”.

As for `CN(CCOc1ccc(NS(C)(=O)=O)cc1)CCc1ccc(NS(C)(=O)=O)cc1` [Dofetilide, reference compound], in assay [1] (setting [17]), the “Effizienz der Cardioversion” value is 25% and the “Verhältnis Ziegen” value is given as “(1/4)”. The “atriale effektive Refraktärzeit (AERP)” value in assay [2] (setting [10]) is 101 ± 19 ms. Moreover, the “Verlängerung des AERP” value in assay [2] (setting [12]) came out at 7 ms. In addition, the “atriale effektive Refraktärzeit (AERP)” value in assay [3] (setting [10]) was 172 ± 11 ms. In assay [3] (setting [14]), the “Verlängerung der AERP” value is 21 ms. In assay [4] (Fig.2 goat, 10 µg/kg Dofetilide over 30 min without Beispiel 1), the “Anstieg der AFCL” value is given as 14 ms. In assay [4] (Fig.2 goat, 10 µg/kg Dofetilide over 30 min without Beispiel 1, from 92 ms baseline), this compound registered an AFCL of 106 ms. Further, the Kardioversion result in assay [5] (10 µg/kg Dofetilide over 30 min without Beispiel 1, goat of Tabelle 4) is “eine Kardioversion nicht eintritt”.

Turning to `CCCCCCCN(CC)CCCC(O)c1ccc(NS(C)(=O)=O)cc1` (stereo not drawn) [Ibutilide, reference compound], in assay [1] (setting [17]), the “Effizienz der Cardioversion” value came to 29% and the “Verhältnis Ziegen” value is “(2/7)”. Moreover, the “atriale effektive Refraktärzeit (AERP)” value in assay [2] (setting [11]) is recorded as 98 ± 20 ms. Also, the “Verlängerung des AERP” value in assay [2] (setting [13]) came out at 5 ms. Also, the “atriale effektive Refraktärzeit (AERP)” value in assay [3] (setting [11]) came out at 185 ± 23 ms. In assay [3] (setting [15]), the “Verlängerung der AERP” value is 26 ms. Moreover, in assay [4] (setting [16]), the AFCL was 101 ms.
